Reference: patent US8304445B2, “7-pyrazolyl tetracycline compounds and methods of use thereof” (Paratek Pharmaceuticals, Inc., priority 2001, dated 2012)
Converted amounts (≈) assume the structure as drawn.

Tests used:
Format in all cases: cell-based
Settings in all cases: Mueller-Hinton broth, 37° C., 18 h
S. aureus ATCC 29213 = experiment: MIC, broth microdilution, S. aureus ATCC 29213
Protocol: (§1) Growth-inhibitory activity was determined on liquid medium by the antibiotic dilution technique using 96-well microtiter system plates containing two-fold dilutions of antibiotic-agent in 0.2 ml. of Mueller-Hinton broth. Plates were inoculated with each test organism to yield a final inoculum of 5×10^5 CFU/ml and were incubated aerobically at 37° C. for 18 h. The MIC was defined as the lowest concentration of antibacterial agent that inhibited development of visible growth in the microdilution wells.

S. aureus GFX01596 Tet R = experiment: MIC, broth microdilution, S. aureus GFX01596 Tet R
Protocol: as §1

S. pneumoniae 157 = experiment: MIC, broth microdilution, S. pneumoniae 157
Protocol: as §1

[1] = system: S. pneumoniae GFX01778 Tet R; experiment: MIC, broth microdilution, S. pneumoniae GFX01778 Tet R
Protocol: as §1

H. influenzae ATCC 49247 = experiment: MIC, broth microdilution, H. influenzae ATCC 49247
Protocol: as §1

[2] = system: M. catarrhalis ATCC 23246; experiment: MIC, broth microdilution, M. catarrhalis ATCC 23246
Protocol: as §1

E. coli ML 308-225 = experiment: MIC, broth microdilution, E. coli ML 308-225
Protocol: as §1

Row | SMILES | MIC (S. aureus ATCC 29213) [µg/mL] | MIC (S. aureus GFX01596 Tet R) [µg/mL] | MIC (S. pneumoniae 157) [µg/mL] | MIC [1] [µg/mL] | MIC (H. influenzae ATCC 49247) [µg/mL] | MIC [2] [µg/mL] | MIC (E. coli ML 308-225) [µg/mL]
1 | CON=Cc1ccn(-c2ccc(O)c3c2C[C@H]2C[C@H]4[C@H](N(C)C)C(O)=C(C(N)=O)C(=O)[C@@]4(O)C(O)=C2C3=O)c1 [Example 6, [4S-(4aα,5aα12aα)]-4-(Dimethylamino)-7-(3-((methyloxymino)methyl)-1H-pyrrol-1-yl)-1,4,4a,5,5a,6,11,12a-octahydro-3,10,12,12a-tetrahydroxy-1,11-dioxo-2-naphthacenecarboxamide] | 0.12 (≈ 0.224 µM) | 0.5 (≈ 0.932 µM) | 0.06 (≈ 0.112 µM) | 4 (≈ 7.46 µM) | 2 (≈ 3.73 µM) | 0.004 (≈ 0.00746 µM) | 2 (≈ 3.73 µM)
2 | CN(C)[C@@H]1C(O)=C(C(N)=O)C(=O)[C@@]2(O)C(O)=C3C(=O)c4c(O)ccc(-n5ccc(C#N)c5)c4C[C@H]3C[C@@H]12 [Example 5, [4S-(4aα,5aαα12aα)]-7-(3-Cyanopyrrol-1-yl)-4-(dimethylamino)-1,4,4a,5,5a,6,11,12a-octahydro-3,10,12,12a-tetrahydroxy-1,11-dioxo-2-naphthacenecarboxamide] | 0.015 (≈ 0.0297 µM) | 0.5 (≈ 0.991 µM) | 0.015 (≈ 0.0297 µM) | 2 (≈ 3.96 µM) | 0.5 (≈ 0.991 µM) | 0.001 (≈ 0.00198 µM) | 0.5 (≈ 0.991 µM)
3 | CN(C)[C@@H]1C(O)=C(C(N)=O)C(=O)[C@@]2(O)C(O)=C3C(=O)c4c(O)ccc(-n5ccc(C=NO)c5)c4C[C@H]3C[C@@H]12 [Example 4, [4S-(4aα,5aαα,12aα)]-4-(Dimethylamino)-7-(3-((hydroxymino)-methyl)-1H-pyrrol-1-yl)-1,4,4a,5,5a,6,11,12a-octahydro-3, 10,12,12a-tetrahydroxy-1,11-dioxo-2-naphthacenecarboxamide] | 0.12 (≈ 0.23 µM) | 0.5 (≈ 0.957 µM) | 0.03 (≈ 0.0574 µM) | 2 (≈ 3.83 µM) | 2 (≈ 3.83 µM) | 0.03 (≈ 0.0574 µM) | 1 (≈ 1.91 µM)
4 | CN(C)[C@@H]1C(O)=C(C(N)=O)C(=O)[C@@]2(O)C(O)=C3C(=O)c4c(O)ccc(-n5ccc(C=O)c5)c4C[C@H]3C[C@@H]12 [Example 3, [4S-(4aα,5aαα,12aα)]-4-(Dimethylamino)-7-(1H-pyrrol-1-yl-3-carboxaldehyde)-1,4,4a,5,5a,6,11,12a-octahydro-3,10,12,12a-tetrahydroxy-1,11-dioxo-2-naphthacenecarboxamide] | 0.015 (≈ 0.0296 µM) | 0.25 (≈ 0.493 µM) | 0.015 (≈ 0.0296 µM) | 2 (≈ 3.94 µM) | 1 (≈ 1.97 µM) | 0.008 (≈ 0.0158 µM) | 0.5 (≈ 0.985 µM)
